Source: ChEMBL document CHEMBL1201862, “PubChem BioAssay data set” (2004)
Counter-ions that a name gives are not always drawn. Activity calls are given as the source filed them.

Key:
[1] = Counterscreen for IDE inhibitors: Luminescence-based cell-based high throughput dose response assay to identify compounds that are cytotoxic to HEK cells. [Related pubchem assays: 434962 (Primary screen (IDE inhibitors in singlicate)), 449730 (Counterscreen (Cytotoxicity in triplicate)), 435028 (Confirmation (IDE inhibitors in triplicate)) …; format: functional; conditions: HEK293
[2] = target: T1, Insulin-degrading enzyme (Homo sapiens, UniProt P14735); assay: Dose Response: Fluorescence polarization-based cell-based high throughput dose response assay for inhibitors of insulin-degrading enzyme (IDE). [Related pubchem assays: 434962 (Primary screen (IDE inhibitors in singlicate)), 449730 (Counterscreen (Cytotoxicity in triplicate)), 435028 (Confirmation (IDE inhibitors in triplicate)), 434984 (Summary …; format: functional
T1 sequence (P14735 whole entry): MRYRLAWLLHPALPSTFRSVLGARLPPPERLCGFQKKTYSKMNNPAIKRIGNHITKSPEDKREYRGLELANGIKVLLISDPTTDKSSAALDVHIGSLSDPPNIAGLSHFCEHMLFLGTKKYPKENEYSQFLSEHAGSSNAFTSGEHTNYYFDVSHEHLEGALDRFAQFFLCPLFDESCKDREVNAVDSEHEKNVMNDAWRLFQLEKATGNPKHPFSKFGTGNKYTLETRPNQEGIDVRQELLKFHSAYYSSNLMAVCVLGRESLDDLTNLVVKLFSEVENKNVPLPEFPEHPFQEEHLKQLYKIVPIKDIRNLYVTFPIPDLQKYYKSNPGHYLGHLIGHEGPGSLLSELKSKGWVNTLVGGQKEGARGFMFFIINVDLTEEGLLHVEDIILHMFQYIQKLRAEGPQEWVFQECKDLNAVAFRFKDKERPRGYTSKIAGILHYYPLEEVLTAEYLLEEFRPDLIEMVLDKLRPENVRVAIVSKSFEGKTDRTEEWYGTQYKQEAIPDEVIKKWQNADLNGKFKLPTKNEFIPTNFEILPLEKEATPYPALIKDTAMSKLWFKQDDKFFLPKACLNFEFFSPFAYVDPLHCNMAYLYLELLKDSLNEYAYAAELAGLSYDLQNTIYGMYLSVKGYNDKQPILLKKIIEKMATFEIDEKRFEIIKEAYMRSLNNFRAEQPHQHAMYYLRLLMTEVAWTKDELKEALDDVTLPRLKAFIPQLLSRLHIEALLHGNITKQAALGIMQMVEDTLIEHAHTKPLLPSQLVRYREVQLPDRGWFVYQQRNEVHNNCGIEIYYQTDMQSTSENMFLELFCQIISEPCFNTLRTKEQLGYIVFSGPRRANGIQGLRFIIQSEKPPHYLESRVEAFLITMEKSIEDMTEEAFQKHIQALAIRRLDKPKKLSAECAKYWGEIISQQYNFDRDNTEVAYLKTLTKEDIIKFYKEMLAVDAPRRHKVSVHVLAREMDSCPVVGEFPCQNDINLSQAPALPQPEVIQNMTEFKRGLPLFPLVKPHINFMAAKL

[3] = HEp-2 cell cytotoxicity, dose response, cytotoxicity control for RSV inhibitor project, HTS (AID 2410); format: functional; conditions: human respiratory syncytial virus
[4] = target: Neuropeptide Y receptor type 2 (Homo sapiens, UniProt P49146); format: functional, cell-based;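 note: HEK293 cells expressing the receptor and a CNG channel; stimulus was NPY near EC95 followed by isoproterenol to raise cAMP; antagonist potency measured as restoring cAMP signal that NPY suppresses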
Chain of Neuropeptide Y receptor type 2 (P49146 whole entry): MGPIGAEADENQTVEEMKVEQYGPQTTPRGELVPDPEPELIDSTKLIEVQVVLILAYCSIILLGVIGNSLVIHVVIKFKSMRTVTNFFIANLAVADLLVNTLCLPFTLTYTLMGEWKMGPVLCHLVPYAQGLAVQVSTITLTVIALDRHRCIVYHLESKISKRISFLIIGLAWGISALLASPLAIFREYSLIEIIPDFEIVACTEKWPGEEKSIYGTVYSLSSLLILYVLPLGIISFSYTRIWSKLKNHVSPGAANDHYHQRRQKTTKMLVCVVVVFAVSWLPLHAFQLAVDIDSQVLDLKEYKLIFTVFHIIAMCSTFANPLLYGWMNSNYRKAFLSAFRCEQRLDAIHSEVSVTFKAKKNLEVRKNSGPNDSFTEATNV

[5] = target: Neuropeptide Y receptor type 1 (Homo sapiens, UniProt P25929); format: functional;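 note: HEK293 cells with a CNG channel challenged with NPY then isoproterenol; potency as antagonist that reverses NPY suppression of cAMP signal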
Chain of Neuropeptide Y receptor type 1 (P25929 whole entry): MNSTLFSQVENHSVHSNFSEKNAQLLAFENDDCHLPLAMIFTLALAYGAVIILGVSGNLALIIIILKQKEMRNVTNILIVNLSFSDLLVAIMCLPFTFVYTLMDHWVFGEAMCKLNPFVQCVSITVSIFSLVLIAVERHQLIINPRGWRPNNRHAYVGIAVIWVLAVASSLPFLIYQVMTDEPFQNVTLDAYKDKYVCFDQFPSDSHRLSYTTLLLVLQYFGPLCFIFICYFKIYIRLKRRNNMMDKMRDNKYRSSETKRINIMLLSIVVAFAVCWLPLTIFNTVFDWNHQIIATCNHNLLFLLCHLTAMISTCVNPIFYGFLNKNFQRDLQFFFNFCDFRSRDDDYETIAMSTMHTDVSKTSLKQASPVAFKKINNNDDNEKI

[6] = system: BJ; assay: cytotoxicity toward BJ-TERT fibroblasts, dose response, cell-based, RAS-independent, luminescence (AID 1933); format: functional; conditions: Homo sapiens
[7] = system: BJ; assay: cells; format: functional, cell-based; conditions: Homo sapiens
[8] = Luminescence Cell-Based Dose Response HTS to Identify Inhibitors of 5'UTR Stem-Loop Driven Prion Protein mRNA Translation in H4 Neuroglioblastoma Cells. [Related pubchem assays: 1827 (Project Summary), 1813 (Primary HTS)]; format: functional
[9] = inhibitors of firefly luciferase expression or activity, dose response, H4 neuroglioma cells, luminescence (AID 1990); format: functional, cell-based
[10] = Counterscreen for AddAB inhibitors: absorbance-based bacterial cell-based high throughput dose response assay for inhibitors of bacterial viability. [Related pubchem assays (depositor defined):AID435030, AID449728, AID449731, AID488942, AID488955, AID488956]; format: functional
[11] = NIH-3T3 fibroblast cytotoxicity, dose response, cytotoxicity control, cell-based, fluorescence, Alamar Blue, secondary assay (AID 2327); format: functional;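 note: NIH-3T3 mouse fibroblasts cultured with fluconazole at 8 µg/mL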
[12] = cytotoxicity toward DRD oncogenic fibroblasts, dose response, cell-based, non-viral oncogenic, luminescence (AID 1934); format: functional; conditions: Homo sapiens
[13] = target: Heat shock protein HSP 90-alpha (Homo sapiens, UniProt P07900); format: functional, organism-based
[14] = inhibitors of SNCA 5'UTR-driven reporter translation, confirmation, H4 neuroglioma cells, luminescence (AID 1988); format: functional, cell-based
[15] = target: T2, Exodeoxyribonuclease V (Escherichia coli (strain K12), UniProt P04993+P07648+P08394); assay: E. coli RecBCD inhibitors, dose response, counter-screen for AddAB inhibitor project, absorbance, V66 E. coli, mutant T4 phage (AID 492957); format: functional, cell-based, Escherichia coli str. K-12 substr. MG1655
T2 sequence (P04993 whole entry): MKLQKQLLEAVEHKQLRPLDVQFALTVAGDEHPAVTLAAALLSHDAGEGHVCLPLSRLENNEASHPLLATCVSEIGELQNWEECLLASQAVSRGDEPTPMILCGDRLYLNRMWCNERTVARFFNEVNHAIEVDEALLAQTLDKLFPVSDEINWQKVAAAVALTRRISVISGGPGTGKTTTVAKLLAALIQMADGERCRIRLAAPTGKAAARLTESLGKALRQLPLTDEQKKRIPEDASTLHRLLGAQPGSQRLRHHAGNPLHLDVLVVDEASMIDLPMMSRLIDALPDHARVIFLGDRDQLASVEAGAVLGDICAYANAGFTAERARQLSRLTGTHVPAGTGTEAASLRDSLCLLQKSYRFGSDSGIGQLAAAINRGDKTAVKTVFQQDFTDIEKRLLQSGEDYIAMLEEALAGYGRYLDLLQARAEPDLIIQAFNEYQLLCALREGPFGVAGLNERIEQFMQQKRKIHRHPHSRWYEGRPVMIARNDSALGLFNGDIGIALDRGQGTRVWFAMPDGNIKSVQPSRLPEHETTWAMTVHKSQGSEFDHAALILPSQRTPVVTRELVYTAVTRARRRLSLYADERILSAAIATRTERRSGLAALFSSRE
T2 sequence (P07648 whole entry): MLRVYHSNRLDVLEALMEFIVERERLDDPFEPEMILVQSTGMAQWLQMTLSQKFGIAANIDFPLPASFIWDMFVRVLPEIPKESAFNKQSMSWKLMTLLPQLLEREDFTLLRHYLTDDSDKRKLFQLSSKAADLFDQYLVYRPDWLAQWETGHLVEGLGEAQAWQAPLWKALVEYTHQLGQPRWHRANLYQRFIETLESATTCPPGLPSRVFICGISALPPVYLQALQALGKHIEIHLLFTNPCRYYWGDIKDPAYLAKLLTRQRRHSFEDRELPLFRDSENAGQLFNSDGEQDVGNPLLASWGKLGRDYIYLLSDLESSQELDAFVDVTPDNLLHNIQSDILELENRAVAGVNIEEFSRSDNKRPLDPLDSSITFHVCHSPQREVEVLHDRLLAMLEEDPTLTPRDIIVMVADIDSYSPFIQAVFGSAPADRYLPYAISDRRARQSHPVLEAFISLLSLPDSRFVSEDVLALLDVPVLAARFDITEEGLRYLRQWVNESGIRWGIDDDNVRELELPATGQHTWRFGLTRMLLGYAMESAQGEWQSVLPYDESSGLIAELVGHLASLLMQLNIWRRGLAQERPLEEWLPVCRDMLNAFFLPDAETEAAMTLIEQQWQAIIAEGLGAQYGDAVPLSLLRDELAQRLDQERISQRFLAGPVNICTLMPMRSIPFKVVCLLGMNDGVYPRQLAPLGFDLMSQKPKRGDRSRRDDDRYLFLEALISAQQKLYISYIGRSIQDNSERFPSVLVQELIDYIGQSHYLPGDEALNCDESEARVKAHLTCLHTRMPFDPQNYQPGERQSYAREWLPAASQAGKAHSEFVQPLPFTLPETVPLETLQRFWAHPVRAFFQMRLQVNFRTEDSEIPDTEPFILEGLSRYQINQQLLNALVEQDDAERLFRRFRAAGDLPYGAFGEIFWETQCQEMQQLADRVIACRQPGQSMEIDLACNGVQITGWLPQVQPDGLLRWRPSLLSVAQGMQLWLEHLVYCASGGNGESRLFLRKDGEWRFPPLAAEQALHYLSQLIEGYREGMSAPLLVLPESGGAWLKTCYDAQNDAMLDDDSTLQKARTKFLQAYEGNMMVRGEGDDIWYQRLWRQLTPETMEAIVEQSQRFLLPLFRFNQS
T2 sequence (P08394 whole entry): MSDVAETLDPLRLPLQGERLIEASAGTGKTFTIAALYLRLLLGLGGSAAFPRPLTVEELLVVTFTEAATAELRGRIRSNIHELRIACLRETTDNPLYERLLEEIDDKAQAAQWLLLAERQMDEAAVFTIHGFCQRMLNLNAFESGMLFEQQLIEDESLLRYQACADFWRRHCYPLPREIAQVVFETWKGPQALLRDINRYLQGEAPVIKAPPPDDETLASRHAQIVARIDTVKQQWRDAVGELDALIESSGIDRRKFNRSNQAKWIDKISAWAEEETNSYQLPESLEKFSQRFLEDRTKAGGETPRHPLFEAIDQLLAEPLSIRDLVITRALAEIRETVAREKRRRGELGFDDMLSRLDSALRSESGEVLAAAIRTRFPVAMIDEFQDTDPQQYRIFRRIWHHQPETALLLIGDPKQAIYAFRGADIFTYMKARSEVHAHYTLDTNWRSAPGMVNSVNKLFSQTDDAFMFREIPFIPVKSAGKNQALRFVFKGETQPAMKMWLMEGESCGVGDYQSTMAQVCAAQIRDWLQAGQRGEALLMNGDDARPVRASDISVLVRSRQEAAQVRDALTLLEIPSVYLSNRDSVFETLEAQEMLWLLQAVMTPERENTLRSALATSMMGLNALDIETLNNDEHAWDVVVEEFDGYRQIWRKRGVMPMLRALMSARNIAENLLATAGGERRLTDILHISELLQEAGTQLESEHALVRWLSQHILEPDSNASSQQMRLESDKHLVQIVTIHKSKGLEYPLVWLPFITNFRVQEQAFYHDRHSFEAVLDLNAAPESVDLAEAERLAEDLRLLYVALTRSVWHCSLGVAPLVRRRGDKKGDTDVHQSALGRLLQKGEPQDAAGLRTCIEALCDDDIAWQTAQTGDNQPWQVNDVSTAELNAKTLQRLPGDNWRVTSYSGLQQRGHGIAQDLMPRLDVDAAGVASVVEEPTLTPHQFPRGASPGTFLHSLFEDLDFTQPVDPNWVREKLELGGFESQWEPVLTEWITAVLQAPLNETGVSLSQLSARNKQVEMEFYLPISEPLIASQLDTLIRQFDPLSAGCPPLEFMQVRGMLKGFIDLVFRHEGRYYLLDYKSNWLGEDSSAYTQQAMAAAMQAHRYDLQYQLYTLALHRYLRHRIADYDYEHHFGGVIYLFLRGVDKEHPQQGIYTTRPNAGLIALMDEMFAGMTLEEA

[16] = system: Danio rerio; assay: In Vivo Angiogenesis Dose-Response Confirmation. [Related pubchem assays: 732 (Assay preceding this confirmatory assay.)]; format: functional, organism-based
[17] = target: Nonstructural protein 1 (Influenza A virus, UniProt Q194T2); format: functional, Influenza A virus (A/California/07/2009(H1N1))
Chain of Nonstructural protein 1 (Q194T2 whole entry): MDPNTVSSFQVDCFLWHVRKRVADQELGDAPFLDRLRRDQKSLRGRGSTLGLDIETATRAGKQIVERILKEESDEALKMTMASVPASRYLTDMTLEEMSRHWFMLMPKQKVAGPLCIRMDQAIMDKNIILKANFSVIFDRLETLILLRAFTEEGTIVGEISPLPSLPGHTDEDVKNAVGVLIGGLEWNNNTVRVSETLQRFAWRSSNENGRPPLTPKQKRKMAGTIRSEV

[18] = system: BJ; assay: cytotoxicity toward Ras-transformed BJeLR fibroblasts, dose response, cell-based, alamar blue fluorescence, cherrypicked samples (AID 2631); format: functional; conditions: Homo sapiens;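 note: confirmatory dose-response assay in RAS-dependent BJ fibroblasts engineered with TERT, LT and ST, with cytotoxicity read by fluorescence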
[19] = target: Galanin receptor type 2 (Homo sapiens, UniProt O43603); assay: Dose Response cell-based high-throughput screening assay to identify antagonists of galanin receptor 2 (GALR2). [Related pubchem assays: 828, 866 ]; format: functional
Chain of Galanin receptor type 2 (O43603 whole entry): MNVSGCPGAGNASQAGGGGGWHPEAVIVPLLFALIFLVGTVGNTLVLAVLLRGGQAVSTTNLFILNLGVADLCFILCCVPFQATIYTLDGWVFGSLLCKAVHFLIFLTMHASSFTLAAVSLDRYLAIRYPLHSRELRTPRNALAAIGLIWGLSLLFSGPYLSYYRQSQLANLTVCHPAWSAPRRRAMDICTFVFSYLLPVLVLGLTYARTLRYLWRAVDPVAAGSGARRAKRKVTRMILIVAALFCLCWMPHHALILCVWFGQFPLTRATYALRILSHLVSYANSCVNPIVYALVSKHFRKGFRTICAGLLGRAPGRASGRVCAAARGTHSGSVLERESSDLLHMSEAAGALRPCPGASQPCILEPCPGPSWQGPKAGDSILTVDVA

[20] = system: BJ; assay: cytotoxicity toward BJ-TERT-LT-ST fibroblasts, dose response, cell-based, RAS-independent, luminescence (AID 1935); format: functional; conditions: Homo sapiens;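 note: BJ fibroblasts immortalized with TERT plus LT and ST oncogenes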

Cc1ccc(NC2=NC(=O)/C(=C/c3cn(C)c4ccccc34)S2)cc1C
IC50 [1]: 16.5 µM (not active) | IC50 [2]: 18.4 µM (not active) | CC50 [3]: 6.5 µM (active)

CN(C)C(=O)C(CCN1CCC(O)(c2ccc(Cl)cc2)CC1)(c1ccccc1)c1ccccc1 [LOPERAMIDE HYDROCHLORIDE]
IC50 [4]: > 35 µM (not active) | IC50 [5]: > 35 µM (not active)

c1cnc2c(c1)ccc1cccnc12 [PHENANTHROLINE]
EC50 [6]: 5.03 µM (active) | EC50 [7]: 8.88 µM (inconclusive) | EC50 [8]: 5.66 µM (active) | EC50 [9]: 6.95 µM (active) | IC50 [10]: 35.2 µM (inactive) | EC50 [11]: 9.41 µM (inconclusive) | EC50 [12]: 16.4 µM (active) | AC50 [13]: 7.11 µM (active) | EC50 [14]: 7.02 µM (active) | IC50 [15]: 30.5 µM (inactive) | IC50 [16]: 7.51 µM (active) | IC50 [17]: 0.902 µM (active) | EC50 [18]: 6.14 µM (active) | IC50 [19]: > 42 µM (not active) | EC50 [20]: 7.62 µM (inconclusive)
